Reference: patent US4816486A, “Amide derivatives and 5-lypoxygenase inhibitors containing the same” (Terumo Corporation, priority 1985, dated 1989)

Target: T1, 5-lypoxygenase (Mus musculus, UniProt P48999)
T1 construct: The supernatant was used as the 5-lypoxygenase enzyme solution; endogenous in cells; host or cells: mouse mastocytoma P815 cells (supernatant of sonicated cells)
T1 sequence (P48999 1-674): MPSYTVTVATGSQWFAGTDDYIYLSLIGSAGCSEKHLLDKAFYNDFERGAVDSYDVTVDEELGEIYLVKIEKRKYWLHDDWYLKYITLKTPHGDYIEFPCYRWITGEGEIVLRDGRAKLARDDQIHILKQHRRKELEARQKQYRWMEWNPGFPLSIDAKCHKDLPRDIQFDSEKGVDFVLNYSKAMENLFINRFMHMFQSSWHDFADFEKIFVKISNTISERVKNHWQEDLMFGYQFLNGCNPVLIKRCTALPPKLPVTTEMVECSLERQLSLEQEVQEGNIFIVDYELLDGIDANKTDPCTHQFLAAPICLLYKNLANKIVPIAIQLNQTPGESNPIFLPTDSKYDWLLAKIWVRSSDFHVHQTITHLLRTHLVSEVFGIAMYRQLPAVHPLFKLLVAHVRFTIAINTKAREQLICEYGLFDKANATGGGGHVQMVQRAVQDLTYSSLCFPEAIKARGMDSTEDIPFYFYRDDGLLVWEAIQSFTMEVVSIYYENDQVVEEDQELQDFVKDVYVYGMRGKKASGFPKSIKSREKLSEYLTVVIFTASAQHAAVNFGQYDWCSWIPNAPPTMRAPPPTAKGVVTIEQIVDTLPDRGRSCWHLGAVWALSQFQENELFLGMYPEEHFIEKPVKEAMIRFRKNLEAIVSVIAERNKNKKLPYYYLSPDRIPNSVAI
Experiment: 5-Lypoxygenase-inhibiting activity (formation of 5-HETE and LTB4 from radiolabelled arachidonic acid, supernatant of sonicated mouse mastocytoma P815 cells)
Assay type: biochemical
Settings: inhibition of formation of 5-HETE and LTB4; 37° C., 5 min; pH 7.4 phosphate buffer; P815 cell supernatant; indomethacine present; read-out: 50% inhibitory concentration IC50
Experimental: Mouse mastocytoma cells, strain P815 were diluted in a medium containing 90% of the Eagle basal medium (manufactured by Gibco Laboratories) to a cencentration of 5×10^4 cells/ml. The diluted liquor was subjected to shake culture in air at 37° C. for 48 hours. The culture liquor was cooled with ice and centrifuged to collect the cells. The cells were re-suspended in a phosphate buffer solution at pH 7.4 to a concentration of 2×10^7 cells/ml. The suspension was treated in an ultrasonic cell fragmenting machine and then centrifuged at […] for 10 min. The supernatant was used as the 5-lypoxygenase enzyme solution. To a test tube in which 20 μl of radiolabelled arachidonic acid (10 μ curies/ml), indomethacine ([…]) and an amide derivative of the invention to be tested were placed 0.45 ml of phosphate buffer solution, 0.45 ml of the above-prepared enzyme solution and 0.1 ml of 8 mM CaCl2 (calcium chloride) solution. The mixture was reacted at 37° C. for 5 min. […] Determination of the inhibitory activity was made by collecting the portion corresponding to 5-HBTE (5-(s)-hydroxy-6,8,11,14-eicosatetraenic acid) and LTB4 (leucotriene B4), which were 5-lypoxygenase products as detected with a radio-thin layer scanner (Dunnschicht-scanner II LB 2723 manufactured by Berthold), and measuring the radioactivity by means of a scintillation counter. […]

SMILES | IC50 [nM]
COc1cc(/C=C/C(=O)Nc2c(Br)cc(Br)cc2CN(C)C2CCCCC2)ccc1O [Example 1, N-cyclohexyl-N-methyl-(2-(3-(3-methoxy-4-hydroxyphenyl)-2-propenoylamino)-3,5-dibromobenzyl)amine] | 4000
COc1cc(/C=C/C=C/C(=O)Nc2c(Br)cc(Br)cc2CN(C)C2CCCCC2)ccc1O [Example 2, N-cyclohexyl-N-methyl-(2-(5-(3-methoxy-4-hydroxyphenyl)2,4-pentadienoylamino)-3,5-dibromobenzyl)amine] | 300
